Test results published in patent publication US20090176817A1, “Method of Treatment of Diarrhea-Predominant Irritable Bowel Syndrome in a Subject” (priority 2005, published 2009).
Marks after values point to notes of the source that are not given here.

How the values were obtained:
[1] = Study S241.1.111: relative bioavailability and food effect, 2 mg tablet vs oral solution; format: in vivo, human; conditions: for AUC(0-t): AUC(0-last); for half-life: T½
Experimental: Subjects were randomized to receive a cilansetron 2 mg tablet after an overnight fast, a cilansetron 2 mg tablet after a high-fat breakfast, and a cilansetron 2 mg oral solution after an overnight fast during the three treatment periods, with a 7-day washout between periods. Serial blood sampling was performed up to 24 hours following each treatment, and plasma pharmacokinetics parameters for cilansetron and its metabolites, (4R)-hydroxy cilansetron and (4S)-hydroxy cilansetron, were estimated. FIG. 4, FIG. 5, and FIG. 6 present mean plasma concentration-time profiles for cilansetron and its metabolites following treatment with the cilansetron tablet and oral solution. Table 2.7.1.2.2 presents descriptive statistics for the pharmacokinetic parameters of cilansetron and its metabolites for the tablet and oral solution, and the results of statistical comparisons between treatments (tablet versus solution).
Subjects were randomized to receive a cilansetron 2 mg tablet after an overnight fast, a cilansetron 2 mg tablet after a high-fat breakfast, and a cilansetron 2 mg oral solution after an overnight fast during the three treatment periods, with a 7-day washout between periods. Serial blood sampling was performed up to 24 hours following each treatment and plasma pharmacokinetics parameters for cilansetron and its metabolites, (4R)-hydroxy cilansetron and (4S)-hydroxy cilansetron, were estimated. FIG. 7, FIG. 8, and FIG. 9 present mean plasma concentration-time profiles for cilansetron and its metabolites following treatment with the cilansetron tablet under fasted conditions and following a high-fat meal. Table 2.7.1.2.4 presents descriptive statistics for the pharmacokinetic parameters of cilansetron and its metabolites for the tablet under fed and fasted conditions, and the results of statistical comparisons between treatments (fed versus fasted).

[2] = Study S.241.1.109: single and multiple dose pharmacokinetics 2 mg TID; format: in vivo, human
Experimental: In an open-label, randomized, parallel-group study in 36 healthy, male and female subjects (19-45 years), subjects received a 2 mg single dose of cilansetron on Day 1 and 2 mg TID on Days 2-7. The morning doses on Days 1 and 7 were administered immediately after a standard breakfast. Serial blood samples for the measurement of single-dose and steady-state pharmacokinetics of cilansetron and its main metabolites, (4R)-hydroxy cilansetron and (4S)-hydroxy cilansetron, were collected on Day 1 (single dose) up to 24 hours postdose and on Day 7 (multiple dose) up to 8 hours postdose.

human 5-HT3 receptor = target: T1, human 5-HT3 receptor (Homo sapiens, UniProt P46098); assay: 5-HT3 receptor binding
T1 sequence (P46098 24-478): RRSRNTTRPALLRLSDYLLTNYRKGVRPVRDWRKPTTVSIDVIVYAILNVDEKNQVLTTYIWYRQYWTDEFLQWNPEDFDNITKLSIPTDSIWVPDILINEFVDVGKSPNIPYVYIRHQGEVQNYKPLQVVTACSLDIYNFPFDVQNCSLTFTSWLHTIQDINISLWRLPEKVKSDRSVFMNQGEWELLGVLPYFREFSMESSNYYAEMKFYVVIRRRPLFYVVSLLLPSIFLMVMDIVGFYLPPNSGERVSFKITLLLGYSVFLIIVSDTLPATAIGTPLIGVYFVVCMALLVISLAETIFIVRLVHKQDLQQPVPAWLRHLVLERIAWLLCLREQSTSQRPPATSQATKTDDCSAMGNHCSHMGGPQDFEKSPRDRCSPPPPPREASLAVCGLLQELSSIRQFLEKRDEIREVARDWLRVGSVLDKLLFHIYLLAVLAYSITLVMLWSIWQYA

[3] = Study S.241.1.109: interaction with paroxetine 20 mg QD; format: in vivo, human; conditions: for AUC(0-τ) / Cmax / Tmax: steady state; for AUC(0-τ): AUC(0-8); for AUC(0-τ) / Cmax: arith. mean; for Tmax: median
Experimental: (§1) In an open-label, randomized, parallel-group study in three groups of 12 healthy, male and female subjects (aged 19 to 45 years), subjects received a 2 mg single dose of cilansetron on Day 1, 2 mg TID on Days 2-13, and a 2 mg single dose on Day 14. […] All morning doses of cilansetron and enzyme inhibitors were administered immediately after a standard breakfast. […] For each treatment group, log-transformed cilansetron AUC(0-τ) and Cmax values on Day 14 (cilansetron+enzyme inhibitor) were compared statistically versus values on Day 7 (cilansetron alone).
FIG. 50, FIG. 51, and FIG. 52 present geometric mean steady-state plasma concentration-time profiles for cilansetron and its 4-hydroxy metabolites in the absence and presence of concomitant paroxetine. […] These increases in exposure are not clinically significant.

[4] = Study S.241.1.109: interaction with fluvoxamine 50 mg QD; format: in vivo, human; conditions: for AUC(0-τ) / Cmax / Tmax: steady state; for AUC(0-τ): AUC(0-8); for AUC(0-τ) / Cmax: arith. mean; for Tmax: median
Experimental: as §1
FIG. 42, FIG. 43, and FIG. 44 present geometric mean steady-state plasma concentration-time profiles for cilansetron and its 4-hydroxy metabolites in the absence and presence of concomitant fluvoxamine.

[5] = both sexes, human, in vivo, 2 mg
[6] = both sexes, human, in vivo, 2 mg, Cmax
[7] = both sexes, human, in vivo, po, 2 mg
[8] = 2 mg tablet, fasted, single dose
[9] = Cilansetron 2 mg TID + Paroxetine 20 mg QD
[10] = Cilansetron 2 mg TID alone (paroxetine group)
[11] = cilansetron + paroxetine / cilansetron alone, ANOVA of log-transformed data
[12] = Cilansetron 2 mg TID + Fluvoxamine 50 mg once daily
[13] = Cilansetron 2 mg TID alone (fluvoxamine group)
[14] = cilansetron + fluvoxamine / cilansetron alone, ANOVA of log-transformed data

Cc1nccn1C[C@H]1CCc2c(c3cccc4c3n2CCC4)C1=O [Cilansetron, (R)-(−)-4,5,6,8,9,10-hexahydro-10-[(2-methyl-1H-imidazol-1-yl)methyl]-11H-pyrido-[3,2,1-jk]-carbazol-11-one] gave an AUC(0-inf) ([1]; both sexes, human, in vivo, 2 mg, AUC(0-inf)) of 22.8 ng·h/mL, an AUC(0-t) [1, 5] of 22.4 ng·h/mL and a Cmax [1, 6] of 8.24 ng/mL. For the same compound, the Tmax ([1]; both sexes, human, in vivo, 2 mg, Tmax) was 1 h, the half-life [1, 5] was 1.42 h and the AUC(0-inf) ([1]; both sexes, human, in vivo, po, 2 mg, AUC(0-inf)) was 20.7 ng·h/mL. For the same compound, the AUC(0-t) [1, 7] was 20.2 ng·h/mL, the Cmax ([1]; both sexes, human, in vivo, po, 2 mg, Cmax) was 7.55 ng/mL and the Tmax ([1]; both sexes, human, in vivo, po, 2 mg, Tmax) was 1 h. The half-life [1, 7] was 1.48 h, the “Intrasubject % CV for AUC” value ([1]; both, human, in vivo) was 19.2% and the “Intrasubject % CV for Cmax” value ([1]; both, human, in vivo) was 24.5%. The “AUC(0-inf) increase under fed conditions” value ([1]; both, human, in vivo, 2 mg) was 20%, the “AUC(0-inf) ratio fed/fasted” value ([1]; both, human, in vivo, 2 mg) was 121% and the Cmax ratio fed/fasted ([1]; both, human, in vivo, 2 mg) was 101%. The “AUC(0-inf) ratio tablet/oral solution” value ([1]; both, human, in vivo, po) was 99%, the “Cmax ratio tablet/oral solution” value ([1]; both, human, in vivo, po) was 108% and the Tmax ([2]; both sexes, human, in vivo) was 1.75 h. It also gave a Tmax at 7 day ([2]; both sexes, human, in vivo) of 1.5 h, an AUC(0-inf) [2, 5] of 22.3 ng·h/mL and an AUC ([2]; both sexes, human, in vivo, 2 mg, AUC(0-τ)) of 21 ng·h/mL. For the same compound, the Cmax [2, 6] was 6.63 ng/mL, the Cmax at 7 day [2, 6] was 7.55 ng/mL and the Cmax ([2]; both sexes, human, in vivo, 2 mg, Plasma Cmax) was 6 to 7 ng/mL. For the same compound, the half-life ([2]; both sexes, human, in vivo, 2 mg, T½) was 1.6 h, the half-life ([2]; both sexes, human, in vivo, Half-life) was 1 to 2 h and the “AUC accumulation ratio Day 7/Day 1” value ([2]; both, human, in vivo) was 105^d %. For the same compound, the “Cmax accumulation ratio Day 7/Day 1” value ([2]; both, human, in vivo) was 110^e %, the “Linearity Ratio” value ([2]; both, human, in vivo) was 99% and the “AUC(0-τ)” value ([2]; both, human, in vivo, 2 mg) was 23.5 (44) ng · h/mL. For the same compound, the “Intersubject % CV for AUC and Cmax” value ([2]; both, human, in vivo, 2 mg) was 44-56%, the T½ ([2]; both, human, in vivo, 2 mg) was 1.64 (18) h and the pKi (human 5-HT3 receptor) was 9.4. The “Mean AUC increase with paroxetine” value ([3]; both, human, in vivo) was 20%, the “Mean Cmax increase with paroxetine” value ([3]; both, human, in vivo) was 36% and the Effect of paroxetine ([3]; in vivo) was “no significant effect”. For the same compound, the “Increase in cilansetron exposure with fluvoxamine” value ([4]; both, human, in vivo) was 3.7-6.6 fold, the “Mean AUC increase with fluvoxamine” value ([4]; both, human, in vivo) was 6.6 fold and the “Mean Cmax increase with fluvoxamine” value ([4]; both, human, in vivo) was 3.7 fold.
For Cc1nccn1CC1CCc2c(c3cccc4c3n2CC[C@@H]4O)C1=O (stereo partly drawn) [(4S)-hydroxy cilansetron], the “AUC(0-inf)” value ([1]; 2 mg oral solution, fasted) was 7.20 (23) ng · h/mL, the “AUC(0-last)” value ([1]; 2 mg oral solution, fasted) was 5.82 (24) ng · h/mL and the Cmax ([1]; 2 mg oral solution, fasted) was 0.607 (19) ng/mL. The T½ ([1]; 2 mg oral solution, fasted) was 7.13 (25) h, the Tmax ([1]; 2 mg oral solution, fasted, median) was 3.00 h and the “AUC(0-inf)” value [1, 8] was 7.31 (22) ng · h/mL. For the same compound, the “AUC(0-last)” value [1, 8] was 5.98 (22) ng · h/mL, the Cmax [1, 8] was 0.637 (17) ng/mL and the T½ [1, 8] was 7.26 (32) h. The Tmax ([1]; 2 mg tablet, fasted, median) was 3.00 h, the “AUC(0-inf)” value ([1]; 2 mg tablet, fed) was 7.54 (19) ng · h/mL and the Cmax ([1]; 2 mg tablet, fed) was 0.602 (17) ng/mL. For the same compound, the T½ ([1]; 2 mg tablet, fed) was 7.94 (34) h, the “AUC(0-last)” value ([1]; 2 mg tablet, fed (high-fat breakfast)) was 6.10 (19) ng · h/mL and the Tmax ([1]; 2 mg tablet, fed, median) was 4.00 h. For the same compound, the “AUC(0-τ)” value ([2]; 2 mg TID, Day 7) was 7.91 (19) ng · h/mL, the Cmax ([2]; 2 mg TID, Day 7) was 1.25 (18) ng/mL and the “AUC(0-inf)” value ([2]; 2 mg single dose, Day 1) was 7.42 (20) ng · h/mL. For the same compound, the “AUC(0-τ)” value ([2]; 2 mg single dose, Day 1) was 3.26 (19) ng · h/mL, the Cmax ([2]; 2 mg single dose, Day 1) was 0.605 (22) ng/mL and the T½ ([2]; 2 mg single dose, Day 1) was 7.48 (26) h. The “AUC accumulation ratio Day 7/Day 1” value ([2]; AUC(0-τ)) was 239^d %, the “Linearity Ratio” value ([2]; AUC(0-τ) Day 7 to AUC(0-inf) Day 1) was 108% and the Tmax ([2]; Day 1, median (min, max)) was 4.00 (1.50, 6.00)^b h. The “Accumulation following TID dosing (mean increase)” value ([2]; Day 7:Day 1, AUC(0-τ) and Cmax) was 105-139%, the Tmax ([2]; Day 7, median (min, max)) was 3.00 (1.75, 4.00)^b h and the “Time of peak concentration” value ([2]; after cilansetron dosing) was 3 to 4 h. The half-life ([2]; approximate mean) was roughly 7.5 h, the “AUC(0-τ) (Day 7) to AUC(0-inf) (Day 1) mean ratio” value ([2]; human, in vivo) was 1.08 and the “Cmax accumulation ratio Day 7/Day 1” value ([2]; human, in vivo) was 205^e %. For the same compound, the “Accumulation following TID dosing” value ([2]; in vivo) was “greater than 2 fold”, the pKi (human 5-HT3 receptor) was 8.0 and the “AUC(0-τ)” value [3, 9] was 7.62 ng·h/mL. The Cmax [3, 9] was 1.23 ng/mL, the Tmax [3, 9] was 3.00 h and the “AUC(0-τ)” value [3, 10] was 7.97 ng·h/mL. For the same compound, the Cmax [3, 10] was 1.22 ng/mL, the Tmax [3, 10] was 3.00 h and the “AUC(0-τ) Ratio (Treatment B/A)” value [3, 11] was 99%. The “Cmax Ratio (Treatment B/A)” value [3, 11] was 105%, the “AUC(0-τ)” value [4, 12] was 7.17 ng·h/mL and the Cmax [4, 12] was 1.07 ng/mL. For the same compound, the Tmax [4, 12] was 2.00 h, the “AUC(0-τ)” value [4, 13] was 7.29 ng·h/mL and the Cmax [4, 13] was 1.17 ng/mL. For the same compound, the Tmax [4, 13] was 3.00 h, the “AUC(0-τ) Ratio (Treatment B/A)” value [4, 14] was 101% and the “Cmax Ratio (Treatment B/A)” value [4, 14] was 93%.
